According to patent US9980943B2, “Methods of treating muscular dystrophy” (BOARD OF REGENTS OF THE NEVADA SYSTEM OF HIGHER EDUCATION, …, priority 2013, dated 2018):
Where two headings read alike, the source gives them in different places.

What was measured:
Format in all cases: cell-based, mouse
[1] = tested on: α7 integrin (LacZ reporter in α7βgal+/− myoblasts); test: Myoblast α7+/LacZ integrin FDG assay (Burkin assay in myoblasts, 96-well); details: α7+/LacZ myoblasts, 96-well; for fold induction at 0.5 µM / fold induction at 1 µM / fold induction at 5 µM / fold induction at 10 µM / fold induction at 20 µM / fold induction at 40 µM: Mus musculus, Myoblast, 48 h
[2] = tested on: α7 integrin (LacZ reporter in α7+/LacZ myotubes); test: Myotube α7 integrin FDG assay (Burkin assay in myotubes, 96-well); details: myotubes; for fold induction at 0.5 µM / fold induction at 1 µM / fold induction at 5 µM / fold induction at 10 µM / fold induction at 20 µM / fold induction at 40 µM: Mus musculus, Myotube
[3] = tested on: β-galactosidase in CMV-LacZ C2C12 myotubes; test: CMV-LacZ secondary screen in C2C12 myotubes (β-Gal stabilizing assay); details: for fold induction at 5 µM / fold induction at 10 µM / fold induction at 20 µM / fold induction at 40 µM: Mus musculus; for fold induction at 5 µM / fold induction at 10 µM / fold induction at 20 µM / fold induction at 40 µM / CMV-LACZ in Myotubes, signal relative to DMSO: C2C12 CMV-LacZ myotubes, fold relative to DMSO; for CMV-LACZ in Myotubes (β-galactosidase activity relative to DMSO): CMV-LacZ C2C12 myotubes, 96-well format
How it was run: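 Stable CMV-LacZ C2C12 clone; six-point curve 0.5–40 μM; duplicates.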

COc1ccc(Nc2ncnc3ccc(Br)cc23)cc1OC [MLS001196422-01]
fold induction at 0.5 µM ([1]; 0.5 uM, read-out: Burkin Assay in Myoblasts, signal relative to DMSO): 0.746
fold induction at 1 µM ([1]; 1 uM, read-out: Burkin Assay in Myoblasts, signal relative to DMSO): 0.978
fold induction at 5 µM ([1]; 5 uM, read-out: Burkin Assay in Myoblasts, signal relative to DMSO): 1.23
fold induction at 10 µM ([1]; 10 uM, read-out: Burkin Assay in Myoblasts, signal relative to DMSO): 1.33
fold induction at 20 µM ([1]; 20 uM, read-out: Burkin Assay in Myoblasts, signal relative to DMSO): 1.25
fold induction at 40 µM ([1]; 40 uM, read-out: Burkin Assay in Myoblasts, signal relative to DMSO): 1
fold induction at 0.5 µM ([2]; 0.5 uM, read-out: Burkin Assay in Myotubes, α7 integrin LacZ reporter signal relative to DMSO): 0.976
fold induction at 1 µM ([2]; 1 uM, read-out: Burkin Assay in Myotubes, α7 integrin LacZ reporter signal relative to DMSO): 1.14
fold induction at 5 µM ([2]; 5 uM, read-out: Burkin Assay in Myotubes, α7 integrin LacZ reporter signal relative to DMSO): 1.19
fold induction at 10 µM ([2]; 10 uM, read-out: Burkin Assay in Myotubes, α7 integrin LacZ reporter signal relative to DMSO): 1.32
fold induction at 20 µM ([2]; 20 uM, read-out: Burkin Assay in Myotubes, α7 integrin LacZ reporter signal relative to DMSO): 1.09
fold induction at 40 µM ([2]; 40 uM, read-out: Burkin Assay in Myotubes, α7 integrin LacZ reporter signal relative to DMSO): 0.975
fold induction at 5 µM ([3]; 5 uM, read-out: CMV-LACZ in Myotubes, signal relative to DMSO): 0.896
fold induction at 10 µM ([3]; 10 uM, read-out: CMV-LACZ in Myotubes, signal relative to DMSO): 0.893
fold induction at 20 µM ([3]; 20 uM, read-out: CMV-LACZ in Myotubes, signal relative to DMSO): 0.83
fold induction at 40 µM ([3]; 40 uM, read-out: CMV-LACZ in Myotubes, signal relative to DMSO): 0.856

CCOc1cc(/C=C2\C(=O)ON=C2c2ccccc2)ccc1OC [MLS001196946-01]
Burkin Assay in Myoblasts, value relative to DMSO ([1]; 0.5 uM): 0.9541
Burkin Assay in Myoblasts, value relative to DMSO ([1]; 1 uM): 0.9798
Burkin Assay in Myoblasts, value relative to DMSO ([1]; 5 uM): 0.7989
Burkin Assay in Myoblasts, value relative to DMSO ([1]; 10 uM): 0.6188
Burkin Assay in Myoblasts, value relative to DMSO ([1]; 20 uM): 0.1194
Burkin Assay in Myoblasts, value relative to DMSO ([1]; 40 uM): 0.08385
Burkin Assay in Myotubes (signal relative to DMSO) ([2]; 0.5 uM): 0.9942
Burkin Assay in Myotubes (signal relative to DMSO) ([2]; 1 uM): 1.113
Burkin Assay in Myotubes (signal relative to DMSO) ([2]; 5 uM): 1.002
Burkin Assay in Myotubes (signal relative to DMSO) ([2]; 10 uM): 0.9469
Burkin Assay in Myotubes (signal relative to DMSO) ([2]; 20 uM): 0.5465
Burkin Assay in Myotubes (signal relative to DMSO) ([2]; 40 uM): 0.2832
CMV-LACZ in Myotubes (β-galactosidase activity relative to DMSO) ([3]; 5 uM): 0.9817
CMV-LACZ in Myotubes (β-galactosidase activity relative to DMSO) ([3]; 10 uM): 1.13
CMV-LACZ in Myotubes (β-galactosidase activity relative to DMSO) ([3]; 20 uM): 2.7886
CMV-LACZ in Myotubes (β-galactosidase activity relative to DMSO) ([3]; 40 uM): 3.9614

CC1(C)CC(=O)C=C(Nc2ccc(C(=O)O)c(O)c2)C1 [MLS001198693-01]
Burkin Assay in Myoblasts, signal relative to DMSO ([1]; 0.5 uM): 0.9617
Burkin Assay in Myoblasts, signal relative to DMSO ([1]; 1 uM): 0.5426
Burkin Assay in Myoblasts, signal relative to DMSO ([1]; 5 uM): 0.9229
Burkin Assay in Myoblasts, signal relative to DMSO ([1]; 10 uM): 0.9137
Burkin Assay in Myoblasts, signal relative to DMSO ([1]; 20 uM): 0.9351
Burkin Assay in Myoblasts, signal relative to DMSO ([1]; 40 uM): 0.9164
Burkin Assay in Myotubes, α7 integrin LacZ reporter signal relative to DMSO ([2]; 0.5 uM): 0.96
Burkin Assay in Myotubes, α7 integrin LacZ reporter signal relative to DMSO ([2]; 1 uM): 0.9048
Burkin Assay in Myotubes, α7 integrin LacZ reporter signal relative to DMSO ([2]; 5 uM): 1.011
Burkin Assay in Myotubes, α7 integrin LacZ reporter signal relative to DMSO ([2]; 10 uM): 0.9514
Burkin Assay in Myotubes, α7 integrin LacZ reporter signal relative to DMSO ([2]; 20 uM): 0.9319
Burkin Assay in Myotubes, α7 integrin LacZ reporter signal relative to DMSO ([2]; 40 uM): 1.116
CMV-LACZ in Myotubes, signal relative to DMSO ([3]; 5 uM): 1.092
CMV-LACZ in Myotubes, signal relative to DMSO ([3]; 10 uM): 0.9258
CMV-LACZ in Myotubes, signal relative to DMSO ([3]; 20 uM): 1.025
CMV-LACZ in Myotubes, signal relative to DMSO ([3]; 40 uM): 1.112

COc1ccc(CNC(=O)CCN2C(=O)c3ccccc3C2=O)cc1 [MLS001200980-01]
Burkin Assay in Myoblasts, value relative to DMSO ([1]; 0.5 uM): 0.9918
Burkin Assay in Myoblasts, value relative to DMSO ([1]; 1 uM): 0.9255
Burkin Assay in Myoblasts, value relative to DMSO ([1]; 5 uM): 1.055
Burkin Assay in Myoblasts, value relative to DMSO ([1]; 10 uM): 0.9544
Burkin Assay in Myoblasts, value relative to DMSO ([1]; 20 uM): 0.9561
Burkin Assay in Myoblasts, value relative to DMSO ([1]; 40 uM): 0.9201
Burkin Assay in Myotubes (signal relative to DMSO) ([2]; 0.5 uM): 1.0669
Burkin Assay in Myotubes (signal relative to DMSO) ([2]; 1 uM): 1.022
Burkin Assay in Myotubes (signal relative to DMSO) ([2]; 5 uM): 1.121
Burkin Assay in Myotubes (signal relative to DMSO) ([2]; 10 uM): 1.216
Burkin Assay in Myotubes (signal relative to DMSO) ([2]; 20 uM): 1.015
Burkin Assay in Myotubes (signal relative to DMSO) ([2]; 40 uM): 0.9712
CMV-LACZ in Myotubes, signal relative to DMSO ([3]; 5 uM): 0.8782
CMV-LACZ in Myotubes, signal relative to DMSO ([3]; 10 uM): 0.9568
CMV-LACZ in Myotubes, signal relative to DMSO ([3]; 20 uM): 0.9272
CMV-LACZ in Myotubes, signal relative to DMSO ([3]; 40 uM): 1.0886

O=C(Nc1cc(Br)ccc1O)C1CC(c2ccccc2Cl)=NO1 (stereo not shown) [MLS001202627-01]
Burkin Assay in Myoblasts, value relative to DMSO ([1]; 0.5 uM): 1.172
Burkin Assay in Myoblasts, value relative to DMSO ([1]; 1 uM): 1.081
Burkin Assay in Myoblasts, value relative to DMSO ([1]; 5 uM): 0.9923
Burkin Assay in Myoblasts, value relative to DMSO ([1]; 10 uM): 0.7739
Burkin Assay in Myoblasts, value relative to DMSO ([1]; 20 uM): 0.5427
Burkin Assay in Myoblasts, value relative to DMSO ([1]; 40 uM): 0.2179
Burkin Assay in Myotubes (signal relative to DMSO) ([2]; 0.5 uM): 0.9687
Burkin Assay in Myotubes (signal relative to DMSO) ([2]; 1 uM): 0.7692
Burkin Assay in Myotubes (signal relative to DMSO) ([2]; 5 uM): 1.025
Burkin Assay in Myotubes (signal relative to DMSO) ([2]; 10 uM): 0.8124
Burkin Assay in Myotubes (signal relative to DMSO) ([2]; 20 uM): 0.9394
Burkin Assay in Myotubes (signal relative to DMSO) ([2]; 40 uM): 0.2335
CMV-LACZ in Myotubes (β-galactosidase activity relative to DMSO) ([3]; 5 uM): 0.9234
CMV-LACZ in Myotubes (β-galactosidase activity relative to DMSO) ([3]; 10 uM): 0.9555
CMV-LACZ in Myotubes (β-galactosidase activity relative to DMSO) ([3]; 20 uM): 0.9345
CMV-LACZ in Myotubes (β-galactosidase activity relative to DMSO) ([3]; 40 uM): 0.735

COc1ccc(NC(=O)c2ccc3nc(C)sc3c2)cc1 [MLS001204005-01]
fold induction at 0.5 µM ([1]; 0.5 uM, read-out: Burkin Assay in Myoblasts, value relative to DMSO): 1.08
fold induction at 1 µM ([1]; 1 uM, read-out: Burkin Assay in Myoblasts, value relative to DMSO): 1.15
fold induction at 5 µM ([1]; 5 uM, read-out: Burkin Assay in Myoblasts, value relative to DMSO): 1.02
fold induction at 10 µM ([1]; 10 uM, read-out: Burkin Assay in Myoblasts, value relative to DMSO): 1.24
fold induction at 20 µM ([1]; 20 uM, read-out: Burkin Assay in Myoblasts, value relative to DMSO): 1.23
fold induction at 40 µM ([1]; 40 uM, read-out: Burkin Assay in Myoblasts, value relative to DMSO): 1.17
fold induction at 0.5 µM ([2]; 0.5 uM, read-out: Burkin Assay in Myotubes (signal relative to DMSO)): 0.903
fold induction at 1 µM ([2]; 1 uM, read-out: Burkin Assay in Myotubes (signal relative to DMSO)): 0.987
fold induction at 5 µM ([2]; 5 uM, read-out: Burkin Assay in Myotubes (signal relative to DMSO)): 0.763
fold induction at 10 µM ([2]; 10 uM, read-out: Burkin Assay in Myotubes (signal relative to DMSO)): 1.02
fold induction at 20 µM ([2]; 20 uM, read-out: Burkin Assay in Myotubes (signal relative to DMSO)): 0.818
fold induction at 40 µM ([2]; 40 uM, read-out: Burkin Assay in Myotubes (signal relative to DMSO)): 1.16
fold induction at 5 µM ([3]; C2C12, read-out: CMV-LACZ in Myotubes, signal relative to DMSO, 5 uM): 0.94
fold induction at 10 µM ([3]; C2C12, read-out: CMV-LACZ in Myotubes, signal relative to DMSO, 10 uM): 1.14
fold induction at 20 µM ([3]; C2C12, read-out: CMV-LACZ in Myotubes, signal relative to DMSO, 20 uM): 1.02
fold induction at 40 µM ([3]; C2C12, read-out: CMV-LACZ in Myotubes, signal relative to DMSO, 40 uM): 0.781

COc1ccc2oc(C[S+]([O-])c3ccccc3)c(C(=O)O)c2c1 (stereo not shown) [MLS001208858-01]
Burkin Assay in Myoblasts, signal relative to DMSO ([1]; 0.5 uM): 0.9851
Burkin Assay in Myoblasts, signal relative to DMSO ([1]; 1 uM): 1.003
Burkin Assay in Myoblasts, signal relative to DMSO ([1]; 5 uM): 0.8892
Burkin Assay in Myoblasts, signal relative to DMSO ([1]; 10 uM): 0.8759
Burkin Assay in Myoblasts, signal relative to DMSO ([1]; 20 uM): 0.8548
Burkin Assay in Myoblasts, signal relative to DMSO ([1]; 40 uM): 0.8425
Burkin Assay in Myotubes, α7 integrin LacZ reporter signal relative to DMSO ([2]; 0.5 uM): 1.095
Burkin Assay in Myotubes, α7 integrin LacZ reporter signal relative to DMSO ([2]; 1 uM): 0.9977
Burkin Assay in Myotubes, α7 integrin LacZ reporter signal relative to DMSO ([2]; 5 uM): 1.104
Burkin Assay in Myotubes, α7 integrin LacZ reporter signal relative to DMSO ([2]; 10 uM): 1.062
Burkin Assay in Myotubes, α7 integrin LacZ reporter signal relative to DMSO ([2]; 20 uM): 1.1
Burkin Assay in Myotubes, α7 integrin LacZ reporter signal relative to DMSO ([2]; 40 uM): 1.007
CMV-LACZ in Myotubes, signal relative to DMSO ([3]; 5 uM): 0.944
CMV-LACZ in Myotubes, signal relative to DMSO ([3]; 10 uM): 0.8018
CMV-LACZ in Myotubes, signal relative to DMSO ([3]; 20 uM): 0.9471
CMV-LACZ in Myotubes, signal relative to DMSO ([3]; 40 uM): 0.9238
